Results on 16 compounds are retold here after US20240246968A1, “SMALL MOLECULE INHIBITORS OF KRAS G12C MUTANT” (Merck Sharp & Dohme LLC, priority 2021, published 2024).

pIC50: −log10 of the molar value.

The subject of one assay is MIA PaCa-2 cells. Nature of the assay: Growth inhibition activity on KRAS-G12C mutant cell line (MIA PaCa-2), CellTiter-Glo 3D. Type of assay: cell-based, human. Particulars: MIA PaCa-2, 3-day culture with compound. The procedure, abridged:
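Cells in RPMI1640 with 10% FBS were seeded in U-bottom plates and cultured 1 day at 37 °C, 5% CO2, then exposed to compound (0.2% DMSO final) for 3 more days. Viability read by CellTiter-Glo 3D luminescence; IC50 from growth inhibition relative to untreated wells.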
(In general: ATP-based viability assays read luminescence as a measure of living cells.)

Assay [1] has as its target Gppcp-bound recombinant K-Ras4B G12C mutant protein (amino acids 1-169, C51S/C80L/C118S) (Homo sapiens, UniProt P01116, C118S/C51S/C80L/G12C). Nature of the assay: KRASG12C binding assay (LC-MS, compound binding rate). The following applies: test compound final concentration 0.5 μM, 25° C., 1 hour. The procedure, abridged: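 Gppcp-bound K-Ras4B G12C (1-169; C51S/C80L/C118S), 50 nM in TBS with 0.1 mM TCEP, 0.25 mM MgCl2, 50 μM Gppcp, exposed to compound at 0.5 μM final for 1 h at 25 °C. Quenched with formic acid and analysed by intact-protein ESI LC-MS. Binding rate is the mono-adduct signal over total KRAS signal; graded A (≥80%) to E (<20%).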

The target in assay [2] is T1, interaction between recombinant K-Ras4B G12C mutant protein and cRAF RAS-binding domain (cRAF-RBD) (Homo sapiens, UniProt P01116, G12C).
T1 construct: made in house; host or cells: E. coli
Description: Inhibitory activity on interaction between KRAS G12C and cRAF (Alpha technology). Type of assay: biochemical. The following applies: GMPPNP-bound KRAS G12C incubated with compound at 25° C. for 1 hour, then cRAF-RBD; Alpha signal. The procedure, abridged:
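GMPPNP-loaded His-tagged KRAS G12C (aa 1-169, E. coli) preincubated with compound 1 h at 25° C in Tris pH 7.5, 100 mM NaCl, 1 mM MgCl2, TCEP, 0.1% Tween 20; cRAF-RBD (aa 50-132) added, 1.5 h RT, Alpha signal read. DMSO = 0%, GDP-bound KRAS = 100% inhibition; IC50 from dose titration fit.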

The pIC50 is the negative decadic logarithm of the IC50, by convention in mol/L. For the compound `CO[C@H]1CC[C@H](NC/C=C/C(=O)Nc2c(F)cc(C(=O)c3ccc4c(-c5c(C(F)F)cc6c(nc(C)n6C)c5Cl)cccn34)cc2F)CC1` [Example 64, (E)-N-(4-(8-(4-chloro-6-(difluoromethyl)-1,2-dimethyl-1H-benzo[d]imidazol-5-yl)indolizine-3-carbonyl)-2,6-difluorophenyl)-4-(((1r,4r)-4-methoxycyclohexyl)amino)but-2-enamide], the pIC50 in the assay on MIA PaCa-2 cells (Homo sapiens, MIA PaCa-2, 72 h) was 7.60; in assay [2], 7.34. Moreover, the binding rate entry in assay [1] was “A (A binding rate of 80% or more is rated “A”)”.

On to `Cc1cc2c(nc(CC(F)(F)F)n2C)c(Cl)c1-c1cccn2c(C(=O)c3cc(F)c(NC(=O)/C=C/CNC(C)(C)C)c(F)c3)ccc12` [Example 82, (E)-4-(tert-butylamino)-N-(4-(8-(4-chloro-1,6-dimethyl-2-(2,2,2-trifluoroethyl)-1H-benzo[d]imidazol-5-yl)indolizine-3-carbonyl)-2,6-difluorophenyl)but-2-enamide], for which the pIC50 in the assay with MIA PaCa-2 cells (Homo sapiens, MIA PaCa-2, 72 h) is 6.59; in assay [2], 7.02. Further, the binding rate result in assay [1] is on record as “A (A binding rate of 80% or more is rated “A”)”.

Regarding `CO[C@H]1CC[C@H](NC/C=C/C(=O)Nc2c(F)cc(C(=O)c3cc(C(=O)N(C)C)c4c(-c5c(C)cc6c(nc(C)n6C)c5Cl)cccn34)cc2F)CC1` [Example 106, 8-(4-chloro-1,2,6-trimethyl-1H-benzo[d]imidazol-5-yl)-3-(3,5-difluoro-4-((E)-4-(((1r,4r)-4-methoxycyclohexyl)amino)but-2-enamido)benzol)-N,N-dimethylindolizine-1-carboxamide], the pIC50 with MIA PaCa-2 cells (Homo sapiens, MIA PaCa-2, 72 h) was 6.87; in assay [2] it was 7.51. The binding rate result in assay [1] is on record as “A (A binding rate of 80% or more is rated “A”)”.

As to `COc1cc2c(cc1-c1cccn3c(C(=O)c4cc(F)c(NC(=O)/C=C/CN[C@H]5CC[C@H](OC)CC5)c(F)c4)ccc13)ncn2C` [Example 1, (E)-N-(2,6-difluoro-4-(8-(6-methoxy-1-methyl-1H-benzo[d]imidazol-5-yl)indolizine-3-carbonyl)phenyl)-4-(((1r,4r)-4-methoxycyclohexyl)amino)but-2-enamide], the negative logarithm of the IC50 (pIC50) in the assay with MIA PaCa-2 cells (Homo sapiens, MIA PaCa-2, 72 h) is 7.04; in assay [2], 7.24. Moreover, in assay [1], the binding rate entry is reported as “A (A binding rate of 80% or more is rated “A”)”.

For the compound `COc1cc(-c2cncn2C)cc(Cl)c1-c1cccn2c(C(=O)c3cc(F)c(NC(=O)/C=C/CN[C@H]4CC[C@H](OC)CC4)c(F)c3)ccc12` [Example 42, (E)-N-(4-(8-(2-chloro-6-methoxy-4-(1-methyl-1H-imidazol-5-yl)phenyl)indolizine-3-carbonyl)-2,6-difluorophenyl)-4-(((1r,4r)-4-methoxycyclohexyl)amino)but-2-enamide], the pIC50 is 6.21 in the assay with MIA PaCa-2 cells (Homo sapiens, MIA PaCa-2, 72 h) and 7.07 in assay [2]. For the same compound, the binding rate result in assay [1] is given as “A (A binding rate of 80% or more is rated “A”)”.

In the case of `COc1cc2c(nc(C)n2C)c(Cl)c1-c1cccn2c(C(=O)c3cc(F)c(NC(=O)/C=C/CN[C@H]4CC[C@H](OC)CC4)c(F)c3)ccc12` (single isomer, unassigned) [Example 35-2, (E)-N-(4-(8-(4-chloro-6-methoxy-1,2-dimethyl-1H-benzo[d]imidazol-5-yl)indolizine-3-carbonyl)-2,6-difluorophenyl)-4-(((1r,4r)-4-methoxycyclohexyl)amino)but-2-enamide], the negative-log IC50 (pIC50) with MIA PaCa-2 cells is 7.14; in assay [2], 7.28. Besides, in assay [1], the binding rate result is “A (A binding rate of 80% or more is rated “A”)”.

Regarding `CO[C@H]1CC[C@H](NC/C=C/C(=O)Nc2c(F)cc(C(=O)c3cc(CC#N)c4c(-c5c(C)cc6c(nc(C)n6C)c5Cl)cccn34)cc2F)CC1` [Example 108, (E)-N-(4-(8-(4-chloro-1,2,6-trimethyl-1H-benzo[d]imidazol-5-yl)-1-(cyanomethyl)indolizine-3-carbonyl)-2,6-difluorophenyl)-4-(((1r,4r)-4-methoxycyclohexyl)amino)but-2-enamide], the pIC50 was 7.11 in the assay with MIA PaCa-2 cells (Homo sapiens, MIA PaCa-2, 72 h) and 7.39 in assay [2]. Moreover, the binding rate result in assay [1] is listed as “A (A binding rate of 80% or more is rated “A”)”.

As for `Cc1nc2cc(-c3cccn4c(C(=O)c5cc(F)c(NC(=O)/C=C/CNC(C)(C)CF)c(F)c5)ccc34)c(C(F)(F)F)cc2n1C` [Example 76, (E)-N-(4-(8-(1,2-dimethyl-6-(trifluoromethyl)-1H-benzo[d]imidazol-5-yl)indolizine-3-carbonyl)-2,6-difluorophenyl)-4-((1-fluoro-2-methylpropan-2-yl)amino)but-2-enamide], the negative-log IC50 (pIC50) with MIA PaCa-2 cells (Homo sapiens, MIA PaCa-2, 72 h) was 6.52; in assay [2] it was 7.12. Further, the binding rate result in assay [1] is reported as “A (A binding rate of 80% or more is rated “A”)”.

On to `CO[C@H]1CC[C@H](NC/C=C/C(=O)Nc2c(F)cc(C(=O)c3ccc4c(-c5c(C)cc6c(nc(CO)n6C)c5Cl)cccn34)cc2F)CC1` [Example 58], for which the pIC50 in the assay on MIA PaCa-2 cells (Homo sapiens, MIA PaCa-2, 72 h) is 7.16; in assay [2], 7.46. The binding rate entry in assay [1] is “A (A binding rate of 80% or more is rated “A”)”.

`CO[C@H]1CC[C@H](NC/C=C/C(=O)Nc2c(F)cc(C(=O)c3cnc4c(-c5cc6nc7n(c6cc5C(F)(F)F)CCC7)cccn34)cc2F)CC1` [Example 6, (E)-N-(2,6-difluoro-4-(8-(7-(trifluoromethyl)-2,3-dihydro-1H-benzo[d]pyrrolo[1,2-a]imidazol-6-yl)imidazo[1,2-a]pyridine-3-carbonyl)phenyl)-4-(((1r,4r)-4-methoxycyclohexyl)amino)but-2-enamide]: the pIC50 in the assay with MIA PaCa-2 cells (Homo sapiens, MIA PaCa-2, 72 h) is 7.03; in assay [2], 7.15. Moreover, the binding rate result in assay [1] is “B (a binding rate of 60% or more and less than 80% is rated “B”)”.

As for `Cc1nc2cc(-c3cccn4c(C(=O)c5cc(F)c(NC(=O)/C=C/CNC6CC7CCC(C6)O7)c(F)c5)ccc34)c(C(F)(F)F)cc2n1C` (stereo not drawn) [Example 79, (E)-4-((8-oxabicyclo[3.2.1]octan-3-yl)amino)-N-(4-(8-(1,2-dimethyl-6-(trifluoromethyl)-1H-benzo[d]imidazol-5-yl)indolizine-3-carbonyl)-2,6-difluorophenyl)but-2-enamide], the negative logarithm of the IC50 (pIC50) in the assay on MIA PaCa-2 cells (Homo sapiens, MIA PaCa-2, 72 h) is 6.96; in assay [2], 7.21. For the same compound, the binding rate entry in assay [1] is given as “A (A binding rate of 80% or more is rated “A”)”.

Turning to `CO[C@H]1CC[C@H](NC/C=C/C(=O)Nc2c(F)cc(C(=O)c3ccc4c(-c5c(C(C)C)cc6c(nc(C)n6C)c5Cl)cccn34)cc2F)CC1` (single isomer, unassigned) [Example 71-1, (E)-N-(4-(8-(4-chloro-6-isopropyl-1,2-dimethyl-1H-benzo[d]imidazol-5-yl)indolizine-3-carbonyl)-2,6-difluorophenyl)-4-(((1r,4r)-4-methoxycyclohexyl)amino)but-2-enamide], the pIC50 is 6.89 in the assay on MIA PaCa-2 cells and 7.37 in assay [2]. Moreover, the binding rate entry in assay [1] is on record as “A (A binding rate of 80% or more is rated “A”)”.

For `COc1c(-c2cccn3c(C(=O)c4cc(F)c(NC(=O)/C=C/CN[C@H]5CC[C@H](OC)CC5)c(F)c4)ccc23)c(C)cc2c1nc(C)n2C` (single isomer, unassigned) [Example 39-2, (E)-N-(2,6-difluoro-4-(8-(4-methoxy-1,2,6-trimethyl-1H-benzo[d]imidazol-5-yl)indolizine-3-carbonyl)phenyl)-4-(((1r,4r)-4-methoxycyclohexyl)amino)but-2-enamide], the pIC50 in the assay with MIA PaCa-2 cells is 7.36; in assay [2], 7.49. Also, the binding rate entry in assay [1] was “A (A binding rate of 80% or more is rated “A”)”.

`CC(C)(C)NC/C=C/C(=O)Nc1c(F)cc(C(=O)c2cnc3c(-c4cc5nc6n(c5cc4C(F)(F)F)CCC6)cccn23)cc1F` [Example 7, (E)-4-(tert-butylamino)-N-(2,6-difluoro-4-(8-(7-(trifluoromethyl)-2,3-dihydro-1H-benzo[d]pyrrolo[1,2-a]imidazol-6-yl)imidazo[1,2-a]pyridine-3-carbonyl)phenyl)but-2-enamide]: the pIC50 in the assay on MIA PaCa-2 cells (Homo sapiens, MIA PaCa-2, 72 h) is 6.80; in assay [2], 7.16. In assay [1], the binding rate entry was “B (a binding rate of 60% or more and less than 80% is rated “B”)”.

As to `Cc1cc2c(ncn2C)c(Cl)c1-c1cccn2c(C(=O)c3cc(F)c(NC(=O)/C=C/CNC(C)(C)C)c(F)c3)ccc12` (single isomer, unassigned) [Example 13-1, (E)-4-(tert-butylamino)-N-(4-(8-(4-chloro-1,6-dimethyl-1H-benzo[d]imidazol-5-yl)indolizine-3-carbonyl)-2,6-difluorophenyl)but-2-enamide], the pIC50 is 7.49 in the assay on MIA PaCa-2 cells and 7.34 in assay [2]. In addition, in assay [1], the binding rate result is “A (A binding rate of 80% or more is rated “A”)”.

On to `COc1c(-c2cccn3c(C(=O)c4cc(F)c(NC(=O)/C=C/CNC(C)(C)C)c(F)c4)ccc23)c(C)cc2c1nc(C)n2C` (single isomer, unassigned) [Example 40-2], for which the pIC50 in the assay with MIA PaCa-2 cells was 7.14; in assay [2] it was 7.68. In addition, the binding rate result in assay [1] is “A (A binding rate of 80% or more is rated “A”)”.
